Experimental data from US6413521B1, “Helminth parasite antigen with aminopeptidase-like activity” (The Barbraham Institute, priority 1993, dated 2002).
Non-standard residues stand in square brackets, D forms with d. Residues, ends and D or L forms follow the SMILES beside them. *: point of attachment. Sta = CC(C)C[C@H](N)[C@@H](O)CC(=O)O; Isovaleryl = CC(C)CC(=O)*

B1: Thermolysin: protease, Sigma, 37 units/mg solid (protein, UniProt P00800 233-548, looked up)
Thermolysin: ITGTSTVGVGRGVLGDQKNINTTYSTYYYLQDNTRGNGIFTYDAKYRTTLPGSLWADADNQFFASYDAPAVDAHYYAGVTYDYYKNVHNRLSYDGNNAAIRSSVHYSQGYNNAFWNGSQMVYGDGDGQTFIPLSGGIDVVAHELTHAVTDYTAGLIYQNESGAINEAISDIFGTLVEFYANKNPDWEIGEDVYTPGISGDSLRSMSDPAKYGDPDHYSKRYTGTQDNGGVHINSGIINKAAYLISQGGTHYGVSVVGIGRDKLGKIFYRALTQYLTPTSNFSQLRAAAVQSATDLYGSTSQEVASVKQAFDAVGVK
B2: Subtilisin: protease, Sigma type VIII, 11.6 units/mg solid (protein, UniProt P00780 106-379, looked up)
Subtilisin Carlsberg: AQTVPYGIPLIKADKVQAQGFKGANVKVAVLDTGIQASHPDLNVVGGASFVAGEAYNTDGNGHGTHVAGTVAALDNTTGVLGVAPSVSLYAVKVLNSSGSGSYSGIVSGIEWATTNGMDVINMSLGGASGSTAMKQAVDNAYAKGVVVVAAAGNSGSSGNTNTIGYPAKYDSVIAVGAVDSNSNRASFSSVGAELEVMAPGAGVYSTYPTNTYATLNGTSMASPHVAGAAALILSKHPNLSASQVRNRLSSTATYLGSSFYYGKGLINVEAAAQ

What was measured:
Con A Oo12 ApM activity = assay: Con A O12 aminopeptidase inhibition assay, ApM (leucine p-nitroanilide); format: biochemical, Ostertagia ostertagi
Method: (§1) The effect of various protease inhibitors on Oo12 activity was assayed and included amastatin (aminopeptidase inhibitor), actinonin (aminopeptidase inhibitor), bestatin (aminopeptidase inhibitor), EDTA (metallo-protease inhibitor), E64 (cysteine protease inhibitor), pepstatin (aspartic protease inhibitor), 1,10 phenanthroline (metallo-protease inhibitor) and 3,4-dichloroisocoumarin (DCI, serine protease inhibitor). 10 μl Con A Oo12 and 100 μl 50 mM Mops buffer, pH 7.0 was added to a microtitre plate well and 2-4 μl of enzyme inhibitor added, to give a final concentration of 0.5 mM and 1 mM actinonin, 50 μM and 100 μM bestatin, 1 mM and 15 mM EDTA, 50 μM and 100 μM E64, 10 and 50 μM pepstatin, 1 mM and 10 mM 1,10 phenanthroline, 100 μM and 500 μM DCI. The plate was preincubated at 37° C. for 20-28 minutes and then assayed for ApM and ApA activity. 100 μl 2 mM leucine p-nitroanilide (ApM) or α-glutamic p-nitroanilide (ApA)/Mops was added per well and the optical density (OD) at 405 nm read using an Elisa plate reader. The plates were incubated at 37° C. for 45-48 minutes and the final OD reading was then taken. The OD change per minute per 10 μl sample was calculated. All assays were carried out in triplicate.

Con A Oo12 ApA activity = assay: Con A O12 aminopeptidase inhibition assay, ApA (α-glutamic p-nitroanilide); format: biochemical, Ostertagia ostertagi
Method: as §1

Ostertagia ostertagi PHP = assay: Protease digestion of Oo PhP, release of ApM activity; format: biochemical
Method: Method: Oo PhP was resuspended in 50 mM Mops buffer, pH 7.0 to give 0.1 mg pellet/ml. 50 μl aliquots were prewarmed at 37° C. for 39 minutes. 5 μl of either α-Chymotrypsin (Sigma type VII, 50 units/mg solid), Subtilisin (Sigma type VIII, 11.6 units/mg solid), Trypsin (Sigma, TPCK-treated type XIII, 9700 units/mg solid) or Thermolysin (Sigma, 37 units/mg solid dissolved in 1 mM KCl/2 mM CaCl) was added to give final protease concentrations of 5, 50, 500, 1000 and 2000 μg/ml. Aliquots containing chymotrypsin, trypsin or subtilisin were then incubated at 37° C. for 1 hour and protease activity inhibited by the addition of 1 μl 10 mM 3,4-dichloroisocoumarin (DCI). Aliquots containing thermolysin were incubated for 2 hours at 37° C. and activity inhibited by the addition of 1 μl 0.25M EDTA. Samples were spun at high speed on the airfuge at 20 psi for 20 minutes at room temperature. 5 μl samples were assay for ApM activity, using the microtitre plate method, over 29.6 minutes with methionine-pNA as substrate.

| Molecule | Leu-pNA enzyme activity (Con A Oo12 ApM activity; inhibitor 1 mM) [nmoles/min/10 μl ConA O12] | Leu-pNA enzyme inhibition (Con A Oo12 ApM activity; inhibitor 1 mM) [%] | α-Glu-pNA enzyme activity (Con A Oo12 ApA activity; inhibitor 1 mM) [nmoles/min/10 μl ConA O12] | α-Glu-pNA enzyme inhibition (Con A Oo12 ApA activity; inhibitor 1 mM) [%] | Leu-pNA enzyme activity (Con A Oo12 ApM activity; inhibitor 50 μM) [nmoles/min/10 μl ConA O12] | Leu-pNA enzyme inhibition (Con A Oo12 ApM activity; inhibitor 50 μM) | Leu-pNA enzyme activity (Con A Oo12 ApM activity; inhibitor 100 μM) [nmoles/min/10 μl ConA O12] | Leu-pNA enzyme inhibition (Con A Oo12 ApM activity; inhibitor 100 μM) | α-Glu-pNA enzyme activity (Con A Oo12 ApA activity; inhibitor 50 μM) [nmoles/min/10 μl ConA O12] | α-Glu-pNA enzyme inhibition (Con A Oo12 ApA activity; inhibitor 50 μM) [%] | α-Glu-pNA enzyme activity (Con A Oo12 ApA activity; inhibitor 100 μM) [nmoles/min/10 μl ConA O12] | α-Glu-pNA enzyme inhibition (Con A Oo12 ApA activity; inhibitor 100 μM) [%] | also measured |
| --- | --- | --- | --- | --- | --- | --- | --- | --- | --- | --- | --- | --- | --- |
| c1cnc2c(c1)ccc1cccnc12 [1,10 Phenanthroline, 1,10 phenanthroline] | 0.005 | 99 | 0 | 100 | – | – | – | – | – | – | – | – | inhibitory effect on aminopeptidase activity (Con A Oo12 ApM activity; 10 mM): greatest inhibition; Leu-pNA enzyme activity (Con A Oo12 ApM activity; inhibitor 10 mM): 0 nmoles/min/10 μl ConA O12; Leu-pNA enzyme inhibition (Con A Oo12 ApM activity; inhibitor 10 mM): 100%; α-Glu-pNA enzyme activity (Con A Oo12 ApA activity; inhibitor 10 mM): 0 nmoles/min/10 μl ConA O12; α-Glu-pNA enzyme inhibition (Con A Oo12 ApA activity; inhibitor 10 mM): 100% |
| CC(C)C[C@H](NC(=O)[C@@H](O)[C@H](N)Cc1ccccc1)C(=O)O [Bestatin, bestatin] | – | – | – | – | 0.045 | 96% | 0.022 | 98% | 0.174 | 48 | 0.119 | 64 | – |
| CC(C)CC(=O)N[C@H](C(=O)N[C@H](C(=O)N[C@@H](CC(C)C)[C@@H](O)CC(=O)N[C@@H](C)C(=O)N[C@@H](CC(C)C)[C@@H](O)CC(=O)O)C(C)C)C(C)C [Pepstatin, pepstatin] (Isovaleryl-VV[Sta]A[Sta]-OH) | – | – | – | – | 1.263 | 0 (+3%) | – | – | 0.315 | 6 | – | – | Leu-pNA enzyme activity (Con A Oo12 ApM activity; inhibitor 10 μM): 1.297 nmoles/min/10 μl ConA O12; Leu-pNA enzyme inhibition (Con A Oo12 ApM activity; inhibitor 10 μM): 0 (+6%); α-Glu-pNA enzyme activity (Con A Oo12 ApA activity; inhibitor 10 μM): 0.326 nmoles/min/10 μl ConA O12; α-Glu-pNA enzyme inhibition (Con A Oo12 ApA activity; inhibitor 10 μM): 2% |
| CC(C)C[C@H](NC(=O)[C@H]1O[C@@H]1C(=O)O)C(=O)NCCCCN=C(N)N [E64] | – | – | – | – | 1.241 | 0 (+1%) | 1.278 | 0 (+4%) | 0.323 | 3 | 0.327 | 2 | – |
| O=C(O)CN(CCN(CC(=O)O)CC(=O)O)CC(=O)O [EDTA] | 0.994 | 19 | 0.161 | 52 | – | – | – | – | – | – | – | – | Leu-pNA enzyme activity (Con A Oo12 ApM activity; inhibitor 15 mM): 0.784 nmoles/min/10 μl ConA O12; Leu-pNA enzyme inhibition (Con A Oo12 ApM activity; inhibitor 15 mM): 36%; α-Glu-pNA enzyme activity (Con A Oo12 ApA activity; inhibitor 15 mM): 0.112 nmoles/min/10 μl ConA O12; α-Glu-pNA enzyme inhibition (Con A Oo12 ApA activity; inhibitor 15 mM): 66% |
| O=c1oc(Cl)c(Cl)c2ccccc12 [DCI, 3,4-dichloroisocoumarin] | – | – | – | – | – | – | 1.229 | 0% | – | – | 0.252 | 24 | Leu-pNA enzyme activity (Con A Oo12 ApM activity; inhibitor 500 μM): 1.129 nmoles/min/10 μl ConA O12; Leu-pNA enzyme inhibition (Con A Oo12 ApM activity; inhibitor 500 μM): 8%; α-Glu-pNA enzyme activity (Con A Oo12 ApA activity; inhibitor 500 μM): 0.216 nmoles/min/10 μl ConA O12; α-Glu-pNA enzyme inhibition (Con A Oo12 ApA activity; inhibitor 500 μM): 35% |
| CCCCC[C@H](CC(=O)NO)C(=O)N[C@H](C(=O)N1CCC[C@H]1CO)C(C)C [Actinonin, actinonin] | 0.448 | 63 | 0.029 | 91 | – | – | – | – | – | – | – | – | Leu-pNA enzyme activity (Con A Oo12 ApM activity; inhibitor 0.5 mM): 0.621 nmoles/min/10 μl ConA O12; Leu-pNA enzyme inhibition (Con A Oo12 ApM activity; inhibitor 0.5 mM): 49%; α-Glu-pNA enzyme activity (Con A Oo12 ApA activity; inhibitor 0.5 mM): 0.016 nmoles/min/10 μl ConA O12; α-Glu-pNA enzyme inhibition (Con A Oo12 ApA activity; inhibitor 0.5 mM): 95% |
| B1 | – | – | – | – | – | – | – | – | – | – | – | – | Aminopeptidase M activity released by protease digestion, Met-pNA (Ostertagia ostertagi PHP; 5 μg protease/0.1 mg PHP/ml): 0.06 nmoles/min/5 μl high speed supernatant; Aminopeptidase M activity released by protease digestion, Met-pNA (Ostertagia ostertagi PHP; 50 μg protease/0.1 mg PHP/ml): 0.07 nmoles/min/5 μl high speed supernatant; Aminopeptidase M activity released by protease digestion, Met-pNA (Ostertagia ostertagi PHP; 500 μg protease/0.1 mg PHP/ml): 0.08 nmoles/min/5 μl high speed supernatant; Aminopeptidase M activity released by protease digestion, Met-pNA (Ostertagia ostertagi PHP; 1000 μg protease/0.1 mg PHP/ml): 0.11 nmoles/min/5 μl high speed supernatant; Aminopeptidase M activity released by protease digestion, Met-pNA (Ostertagia ostertagi PHP; 2000 μg protease/0.1 mg PHP/ml): 0.19 nmoles/min/5 μl high speed supernatant; release of ApM from the PhP (Ostertagia ostertagi PHP; 5-2000 μg/ml protease): least effective |
| B2 | – | – | – | – | – | – | – | – | – | – | – | – | Aminopeptidase M activity released by protease digestion, Met-pNA (Ostertagia ostertagi PHP; 5 μg protease/0.1 mg PHP/ml): 0.06 nmoles/min/5 μl high speed supernatant; Aminopeptidase M activity released by protease digestion, Met-pNA (Ostertagia ostertagi PHP; 50 μg protease/0.1 mg PHP/ml): 0.10 nmoles/min/5 μl high speed supernatant; Aminopeptidase M activity released by protease digestion, Met-pNA (Ostertagia ostertagi PHP; 500 μg protease/0.1 mg PHP/ml): 0.35 nmoles/min/5 μl high speed supernatant; Aminopeptidase M activity released by protease digestion, Met-pNA (Ostertagia ostertagi PHP; 1000 μg protease/0.1 mg PHP/ml): 0.66 nmoles/min/5 μl high speed supernatant; Aminopeptidase M activity released by protease digestion, Met-pNA (Ostertagia ostertagi PHP; 2000 μg protease/0.1 mg PHP/ml): 0.95 nmoles/min/5 μl high speed supernatant |
